Results on 20 compounds are retold here after patent publication US11352322B2, “Cyclopropyl-amide compounds as dual LSD1/HDAC inhibitors” (Jubilant Epicore LLC, priority 2016, dated 2022).

Counter-ions that a name gives are not always drawn. Like-named read-outs stand apart in the source and are kept apart here.

Data set [1] concerns the target HDAC6 human recombinant enzyme (Homo sapiens (Human), UniProt Q9UBN7). Put plainly: Histone Deacetylase Assay (BPS Biosciences), HDAC6. It is filed as biochemical. An excerpt: Histone Deacetylase Assay (BPS Biosciences)
Histone deacetylase assay was done as per manufacturer's instructions.

Data set [2] is described as follows: Metabolic stability in liver microsomes, HLM. The settings on record: 1 μM, NADPH.
Description: (§1) The microsomal suspension was prepared by adding liver microsomes to 100 mM potassium phosphate buffer (pH7.4) to give a final protein concentration of 0.5 mg/mL. The stock solution of NCE (10 mM in DMSO) was added to the microsomes to provide a final concentration of 1 μM. […] Samples were vortexed and centrifuged at 5,000 rpm for 10 min to remove proteins. Supernatant were analyzed on LC-MS/MS.
For data set [3], the system named is MM1S. Put plainly: Anticancer activity: Alamar Blue assay, MM1S. Format: cell-based. The settings on record: Homo sapiens, MM1.S, read-out: MM1S EC50. (Resazurin is reduced to fluorescent resorufin, in cell work by metabolically active cells.)
Data set [4] in a line: Metabolic stability in liver microsomes, MLM. The settings on record: 1 μM, NADPH. (Microsomes from liver hold many membrane-bound enzymes, among them those of drug oxidation.)
Description: as §1
For data set [5], the target named is LSD1 (Homo sapiens (Human), UniProt O60341). Put plainly: TR-FRET Assay for LSD1. The settings on record: read-out: LSD1 IC50. For orientation: TR-FRET usually uses a lanthanide donor and a delayed reading to cut background.
Description: TR-FRET Assay for LSD1 (Perkin Elmer)
Tranylcypromine (TCP), LSD1 inhibitor was procured from Selleckchem. […] Stop Solution containing 300 μM tranylcypromine in 1× LANCE Detection Buffer was added to the wells and incubated for 5 min at RT. Then, Detection mix containing 2 nM Eu-Ab and 50 nM ULight-Streptavidin in 1× LANCE Detection Buffer was prepared and added to the reaction mix. This mixture was incubated for 1 hour at room temperature.

Sequence of HDAC6 human recombinant enzyme (Q9UBN7 whole entry): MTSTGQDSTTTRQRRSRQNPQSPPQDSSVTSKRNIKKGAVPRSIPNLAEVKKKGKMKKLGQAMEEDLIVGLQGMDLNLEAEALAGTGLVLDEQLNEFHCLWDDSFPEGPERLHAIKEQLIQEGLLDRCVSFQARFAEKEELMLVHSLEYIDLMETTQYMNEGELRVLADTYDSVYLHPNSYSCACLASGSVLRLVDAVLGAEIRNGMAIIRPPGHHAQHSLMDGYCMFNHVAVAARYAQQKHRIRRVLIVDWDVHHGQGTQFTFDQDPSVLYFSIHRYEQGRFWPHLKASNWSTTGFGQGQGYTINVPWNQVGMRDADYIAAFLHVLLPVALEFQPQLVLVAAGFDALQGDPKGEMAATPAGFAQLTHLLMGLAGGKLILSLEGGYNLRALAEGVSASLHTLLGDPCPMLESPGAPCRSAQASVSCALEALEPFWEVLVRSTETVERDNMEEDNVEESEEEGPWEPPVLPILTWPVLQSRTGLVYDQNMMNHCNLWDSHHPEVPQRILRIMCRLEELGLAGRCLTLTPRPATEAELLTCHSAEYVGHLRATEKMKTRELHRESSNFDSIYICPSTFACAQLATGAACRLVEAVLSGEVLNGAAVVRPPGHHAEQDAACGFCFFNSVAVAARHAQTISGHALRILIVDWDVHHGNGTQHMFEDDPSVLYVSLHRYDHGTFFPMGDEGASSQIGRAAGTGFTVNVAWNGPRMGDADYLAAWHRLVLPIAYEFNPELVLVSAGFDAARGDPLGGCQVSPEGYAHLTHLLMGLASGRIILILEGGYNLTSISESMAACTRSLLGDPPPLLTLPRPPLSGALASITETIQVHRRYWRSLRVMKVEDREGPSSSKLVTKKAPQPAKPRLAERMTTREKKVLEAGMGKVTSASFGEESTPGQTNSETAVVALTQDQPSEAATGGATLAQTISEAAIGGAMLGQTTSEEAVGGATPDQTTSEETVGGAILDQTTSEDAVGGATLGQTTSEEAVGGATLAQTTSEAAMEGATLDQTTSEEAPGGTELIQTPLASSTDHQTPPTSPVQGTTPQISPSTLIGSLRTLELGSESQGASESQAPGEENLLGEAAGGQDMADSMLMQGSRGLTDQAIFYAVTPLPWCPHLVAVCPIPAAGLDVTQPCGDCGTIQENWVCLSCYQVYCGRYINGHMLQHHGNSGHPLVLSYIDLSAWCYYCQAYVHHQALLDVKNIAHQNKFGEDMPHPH

In general, IC50 refers to the midpoint of a concentration-inhibition curve. The term EC50 denotes the concentration that produces a half-maximal response. Turning to `Nc1ccccc1NC(=O)c1ccc(CCCn2cnc(CNC3CC3c3ccc(F)c(F)c3)c2)cc1` (stereo not drawn) [Example 135, N-(2-aminophenyl)-4-(3-(4-(((2-(3,4-difluorophenyl)cyclopropyl)amino)methyl)-1H-imidazol-1-yl)propyl)benzamide TFA Salt], in data set [1], the IC50 was over 10 µM. For the same compound, the “Metabolic stability HLM % remaining in 30 min” value in data set [2] was 2%. For the same compound, the concentration for a half-maximal effect (EC50) in data set [3] stood at 0.247 µM. The “Metabolic stability MLM % remaining in 30 min” value in data set [4] is listed as 8%.

In the case of `Nc1ccccc1NC(=O)c1ccc2c(c1)CN(C(=O)CNC1CC1c1ccc(F)cc1)CC2` (stereo not drawn) [Example 152, N-(2-aminophenyl)-2-(2-((2-(4-fluorophenyl)cyclopropyl)amino)acetyl)-1,2,3,4-tetrahydroisoquinoline-7-carboxamide TFA Salt], the IC50 in data set [1] is over 10 µM. The “Metabolic stability HLM % remaining in 30 min” value in data set [2] is on record as 36%. Besides, in data set [3], the concentration for a half-maximal effect (EC50) was found to be 0.566 µM. For the same compound, the “Metabolic stability MLM % remaining in 30 min” value in data set [4] is 31%.

Regarding `O=C(NO)c1ccc(CC(=O)N2CCC(CNC3CC3c3ccccc3)CC2)cc1` (stereo not drawn) [Example 84, N-hydroxy-4-(2-oxo-2-(4-(((2-phenylcyclopropyl)amino)methyl)piperidin-1-yl)ethyl)benzamide TFA Salt], the IC50 in data set [1] came to 0.045 µM. The “Metabolic stability HLM % remaining in 30 min” value in data set [2] is 78%. Moreover, the EC50 in data set [3] stood at 0.112 µM. In addition, the “Metabolic stability MLM % remaining in 30 min” value in data set [4] came to 40%.

As to `Nc1ccccc1NC(=O)c1cc2c(s1)CCN(C(=O)CNC1CC1c1ccc(F)cc1)C2` (stereo not drawn) [Example 151, N-(2-aminophenyl)-5-((2-(4-fluorophenyl)cyclopropyl)glycyl)-4,5,6,7-tetrahydrothieno[3,2-c]pyridine-2-carboxamide TFA Salt], the concentration for half-maximal inhibition (IC50) in data set [1] was over 10 µM. Further, in data set [2], the “Metabolic stability HLM % remaining in 30 min” value is 30%. Besides, in data set [3], the concentration for a half-maximal effect (EC50) turned out to be 0.345 µM. The “Metabolic stability MLM % remaining in 30 min” value in data set [4] came to 18%.

For the compound `O=C(NO)c1ccc2c(c1)CN(C(=O)CN[C@H]1C[C@@H]1c1ccc(F)cc1)CC2` [Example 104A, 2-(2-(((1S,2R)-2-(4-fluorophenyl)cyclopropyl)amino)acetyl)-N-hydroxy-1,2,3,4-tetrahydroisoquinoline-7-carboxamide TFA Salt], the IC50 in data set [1] was determined as 0.053 µM. For the same compound, the “Metabolic stability HLM % remaining in 30 min” value in data set [2] is on record as 74%. Moreover, in data set [3], the EC50 is 0.183 µM. The “Metabolic stability MLM % remaining in 30 min” value in data set [4] came out at 68%.

Turning to `O=C(NO)c1cc2c(s1)CCN(C(=O)CNC1CC1c1ccc(F)cc1)C2` (stereo not drawn) [Example 103, 5-(2-((2-(4-fluorophenyl)cyclopropyl)amino)acetyl)-N-hydroxy-4,5,6,7-tetrahydrothieno [3,2-c]pyridine-2-carboxamide TFA Salt], the IC50 in data set [1] stood at 0.041 µM. For the same compound, in data set [2], the “Metabolic stability HLM % remaining in 30 min” value was 85%. Also, in data set [3], the EC50 was determined as 0.045 µM. The “Metabolic stability MLM % remaining in 30 min” value in data set [4] is reported as 53%.

In the case of `O=C(NO)c1ccc(/C=C/C(=O)N2CCC(CNC3CC3c3ccccc3)CC2)cc1` (stereo not drawn) [Example 114, (E)-N-hydroxy-4-(3-oxo-3-(4-(((2-phenylcyclopropyl)amino)methyl)piperidin-1-yl)prop-1-en-1-yl)benzamide TFA Salt], the IC50 in data set [1] was 0.068 µM. Further, the “Metabolic stability HLM % remaining in 30 min” value in data set [2] stood at 83%. The EC50 in data set [3] came out at 0.044 µM. Moreover, in data set [4], the “Metabolic stability MLM % remaining in 30 min” value was found to be 56%.

Take `O=C(NO)c1cc2c(s1)CCN(C(=O)CN[C@H]1C[C@@H]1c1ccc(F)cc1)C2` [Example 103B, 5-(2-(((1S,2R)-2-(4-fluorophenyl)cyclopropyl)amino)acetyl)-N-hydroxy-4,5,6,7-tetrahydrothieno[3,2-c]pyridine-2-carboxamide TFA Salt]: in data set [1], the IC50 came out at 0.036 µM. Besides, the “Metabolic stability HLM % remaining in 30 min” value in data set [2] was 76%. The concentration giving a half-maximal response (EC50) in data set [3] stood at 0.015 µM. Moreover, the “Metabolic stability MLM % remaining in 30 min” value in data set [4] came to 73%.

For `Nc1ccccc1NC(=O)c1ccc(CNC(=O)N2CCC(CNC3CC3c3ccc(F)cc3)CC2)cc1` (stereo not drawn) [Example 158, N-(4-((2-aminophenyl)carbamoyl)benzyl)-4-(((2-(4-fluorophenyl)cyclopropyl)amino)methyl)piperidine-1-carboxamide TFA Salt], the concentration for half-maximal inhibition (IC50) in data set [1] is over 10 µM. The “Metabolic stability HLM % remaining in 30 min” value in data set [2] was found to be 50%. The EC50 in data set [3] is 0.058 µM. Further, in data set [4], the “Metabolic stability MLM % remaining in 30 min” value is under 5%.

As for `O=C(NO)c1ccc2c(c1)CN(C(=O)CCCNC1CC1c1ccc(F)cc1)CC2` (stereo not drawn) [Example 107, 2-(4-((2-(4-fluorophenyl)cyclopropyl)amino)butanoyl)-N-hydroxy-1,2,3,4-tetrahydroisoquinoline-7-carboxamide TFA Salt], the IC50 in data set [1] came out at 0.085 µM. Besides, the “Metabolic stability HLM % remaining in 30 min” value in data set [2] is 83%. Further, in data set [3], the half-maximal effective concentration (EC50) came out at 0.078 µM. Further, the “Metabolic stability MLM % remaining in 30 min” value in data set [4] worked out at 67%.

As to `O=C(NO)c1ccc(/C=C/C(=O)N2CCC(CN[C@H]3C[C@@H]3c3ccccc3)CC2)cc1` [Example 114B, N-hydroxy-4-((E)-3-oxo-3-(4-((((1S,2R)-2-phenylcyclopropyl)amino)methyl)piperidin-1-yl)prop-1-en-1-yl)benzamide TFA Salt], in data set [1], the IC50 is 0.033 µM. In data set [2], the “Metabolic stability HLM % remaining in 30 min” value came out at 73%. Further, the EC50 in data set [3] came out at 0.097 µM. The “Metabolic stability MLM % remaining in 30 min” value in data set [4] worked out at 43%.

In the case of `O=C(NO)c1cnc(N2CCC(CN[C@H]3C[C@@H]3c3ccc(F)cc3)CC2)nc1` [Example 21, 2-(4-((((1S,2R)-2-(4-fluorophenyl)cyclopropyl)amino)methyl)piperidin-1-yl)-N-hydroxypyrimidine-5-carboxamide TFA Salt], the half-inhibitory concentration (IC50) in data set [1] worked out at 0.091 µM. Further, the “Metabolic stability HLM % remaining in 30 min” value in data set [2] was 86%. For the same compound, in data set [3], the EC50 was found to be 0.009 µM. Also, the “Metabolic stability MLM % remaining in 30 min” value in data set [4] is on record as 51%.

Consider `O=C(NO)c1cc2c(s1)CCN(C(=O)CCCNC1CC1c1ccc(F)cc1)C2` (stereo not drawn) [Example 105, 5-(4-((2-(4-fluorophenyl)cyclopropyl)amino)butanoyl)-N-hydroxy-4,5,6,7-tetrahydrothieno[3,2-c]pyridine-2-carboxamide TFA Salt], for which the IC50 in data set [1] came out at 0.018 µM. Further, the “Metabolic stability HLM % remaining in 30 min” value in data set [2] came out at 77%. For the same compound, the EC50 in data set [3] turned out to be 0.013 µM. For the same compound, the “Metabolic stability MLM % remaining in 30 min” value in data set [4] is given as 72%.

As to `O=C(NO)c1ccc(CC(=O)N2CCC(CN[C@@H]3C[C@H]3c3ccccc3)CC2)cc1` [Example 84A, N-hydroxy-4-(2-oxo-2-(4-((((1R,2S)-2-phenylcyclopropyl)amino)methyl)piperidin-1-yl)ethyl)benzamide TFA Salt], the concentration for half-maximal inhibition (IC50) in data set [1] came out at 0.022 µM. In addition, the “Metabolic stability HLM % remaining in 30 min” value in data set [2] came out at 78%. In data set [3], the EC50 was determined as 0.026 µM. For the same compound, in data set [4], the “Metabolic stability MLM % remaining in 30 min” value came to 41%.

As for `O=C(NO)c1ccc2c(c1)CN(C(=O)CN[C@@H]1C[C@H]1c1ccc(F)cc1)CC2` [Example 104B, 2-(2-(((1R,2S)-2-(4-fluorophenyl)cyclopropyl)amino)acetyl)-N-hydroxy-1,2,3,4-tetrahydroisoquinoline-7-carboxamide TFA Salt], in data set [1], the IC50 was found to be 0.045 µM. Also, the “Metabolic stability HLM % remaining in 30 min” value in data set [2] is 74%. Besides, the EC50 in data set [3] was 0.374 µM. In addition, the “Metabolic stability MLM % remaining in 30 min” value in data set [4] is 70%.

As for `CN(CC1CCN(CCCc2ccc(C(=O)NO)cc2)CC1)C1CC1c1ccccc1` (stereo not drawn) [Example 45, N-hydroxy-4-(3-(4-((methyl (2-phenylcyclopropyl)amino)methyl)piperidin-1-yl)propyl) benzamide TFA Salt], the EC50 in data set [3] (MM1S cells) came to 0.048 µM. The IC50 in data set [5] stood at 0.465 µM.

Consider `O=C(NO)c1cnc(N2CCC(CN[C@@H]3C[C@H]3c3ccc(F)cc3)CC2)nc1` [Example 20, 2-(4-((((1R,2S)-2-(4-fluorophenyl)cyclopropyl)amino)methyl)piperidin-1-yl)-N-hydroxypyrimidine-5-carboxamide TFA Salt], for which the IC50 in data set [1] came out at 0.072 µM. Besides, in data set [2], the “Metabolic stability HLM % remaining in 30 min” value stood at 91%. Further, the EC50 in data set [3] came to 0.003 µM. For the same compound, the “Metabolic stability MLM % remaining in 30 min” value in data set [4] amounted to 69%.

For `O=C(NO)c1ccc(/C=C/C(=O)N2CCC(CN[C@@H]3C[C@H]3c3ccccc3)CC2)cc1` [Example 114A, N-hydroxy-4-((E)-3-oxo-3-(4-((((1R,2S)-2-phenylcyclopropyl)amino)methyl)piperidin-1-yl)prop-1-en-1-yl)benzamide TFA Salt], the IC50 in data set [1] was 0.038 µM. In addition, the “Metabolic stability HLM % remaining in 30 min” value in data set [2] came to 67%. For the same compound, the concentration giving a half-maximal response (EC50) in data set [3] was 0.014 µM. In addition, the “Metabolic stability MLM % remaining in 30 min” value in data set [4] is 62%.

With `O=C(NO)c1cc2c(s1)CCN(C(=O)CN[C@@H]1C[C@H]1c1ccc(F)cc1)C2` [Example 103A, 5-(2-(((1R,2S)-2-(4-fluorophenyl)cyclopropyl)amino)acetyl)-N-hydroxy-4,5,6,7-tetrahydrothieno[3,2-c]pyridine-2-carboxamide TFA Salt], the half-maximal inhibitory concentration (IC50) in data set [1] turned out to be 0.022 µM. Besides, the “Metabolic stability HLM % remaining in 30 min” value in data set [2] stood at 87%. Besides, the EC50 in data set [3] stood at 0.052 µM. Moreover, in data set [4], the “Metabolic stability MLM % remaining in 30 min” value was 68%.

In the case of `O=C(NO)c1ccc2c(c1)CN(C(=O)CNC1CC1c1ccc(F)cc1)CC2` (stereo not drawn) [Example 104, 2-(2-((2-(4-fluorophenyl)cyclopropyl)amino)acetyl)-N-hydroxy-1,2,3,4-tetrahydroisoquinoline-7-carboxamide TFA Salt], in data set [1], the IC50 turned out to be 0.032 µM. In data set [2], the “Metabolic stability HLM % remaining in 30 min” value stood at 80%. Also, the EC50 in data set [3] turned out to be 0.269 µM. In data set [4], the “Metabolic stability MLM % remaining in 30 min” value is given as 77%.
